This is an account of results in a melting point compilation (Tetko et al.; mined from patent text by program, amines drawn as free bases though some values may be those of a salt).

Regarding `COc1cc(COc2nn(-c3ccccc3)cc2C=O)ccc1OCc1nc(-c2ccccc2)sc1C`, the melting point lay in the range of 164 to 165 °C.
In the case of `Cc1ccccc1C(=O)NCC(C)O` (configuration not stated) it was 78 to 81 °C; in that of `COc1cc2ccccc2cc1C(=O)O`, 130 to 132 °C; in that of `CCOC(=O)c1c(Cl)c2cc(Oc3ccc(C(F)(F)F)cc3)ccc2n1-c1ccc(OC(C)C)cc1`, 136 to 138 °C.
`N#Cc1cc(F)c(-c2ncnc(C(F)(F)F)c2Cl)cc1[N+](=O)[O-]` showed a melting point of 90 to 92 °C.
For the molecule `CCOC(=O)c1c(CN(CC)CC)nc2sc3c(c2c1-c1ccc(OC)c(OC)c1)CCN(C(=O)NC)C3`, the melting point was 153 to 155 °C.
In the case of `CCOC(=O)CCCCCC(=O)NCc1cccc2c1C(=O)N(C1CCC(=O)NC1=O)C2=O` (configuration not stated) it was 82 to 84 °C; in that of `CN(C(=O)OC(C)(C)C)c1ccc(C#CCCCO)cc1`, 103 to 105 °C.
In the case of `CCCCCCCCCCOC(=O)c1ccc(O)c(OC)c1` it was 40 to 40.5 °C; in that of `O=Cc1cn(-c2ccccc2)nc1-c1ccc([N+](=O)[O-])o1`, 208 to 209 °C.
`Cc1nnc(-c2ccc3occc3c2)o1` registered a melting point of 159 to 160 °C.
`C[C@H]([C@](O)(Cn1cncn1)c1ccc(F)cc1F)S(N)(=O)=O` showed a melting point of 195 to 197 °C.
In the case of `CCCCN(CC(=O)N1c2ccccc2N(CC)C(=O)c2cnc(-c3ccccc3)nc21)C(C)(C)C` it was 70 to 72 °C; in that of `COc1ccc2ccc(O)c(-c3nnc(Cl)c4ccccc34)c2c1`, over 210 °C; in that of `COC(=O)C1=C(C)NC(C)=C(C(=O)OCCc2ccc(OCC(O)CO)cc2)C1c1cccc([N+](=O)[O-])c1` (configuration not stated), 117 to 118 °C.
In the case of `N#CC(NC(=O)c1cccn2ccnc12)c1ccco1` (configuration not stated) it was 149 to 151 °C; in that of `CNC(=O)Nc1ccc(C(=O)O)cc1`, over 300 °C; in that of `C=CC(=O)OCc1cn(CCCCCCCCCCCC)nn1`, 50 to 52 °C.
`[N-]=[N+]=Nc1cc(Oc2ccc3c(c2)CCN3C(=O)Nc2cccc(C(F)(F)F)c2)ncn1` yielded a melting point of 167 to 168 °C.
The same measure for `Cc1cc2c(nc(C)n2CCc2ccccc2)c(N)n1`: 185 to 187 °C.
The same measure for `CCOC(=O)C(=O)NNC(=O)c1cc(C)cc(C)c1`: 159 °C.
The same measure for `CCCCOc1ccc(S(=O)(=O)C2(C(=O)O)CCN(CCOc3ccccc3)CC2)cc1`: 204 °C.
In the case of `CCO/C(=C\c1ccc(OCCc2ccc(OCC)cc2)c(OC)c1)C(=O)O`, the melting point came out at 121 °C.
In the case of `CN(C)S(=O)(=O)c1ccc2ccc3ccccc3c(=O)c2c1` it was 130 to 136 °C; in that of `COC(CNc1ccc(C(O)(C(F)(F)F)C(F)(F)F)cc1)OC`, 72 to 74 °C.
Consider `c1ccc(COc2ccc3c(c2)CCc2c-3[nH]c3ccc(OCc4ccccc4)cc23)cc1`, for which the melting point lay in the range of 177 to 180 °C.
Molecule `ClCCCON=C(Cl)c1c(Cl)cccc1Cl` yielded a melting point of 69 to 71 °C.
`FC(F)(F)c1cc(C(F)(F)F)c2nc(N3CCN(c4ncccc4C(F)(F)F)CC3)[nH]c2c1` had a melting point of 142 °C.
With `O=C1Cn2ccnc2-c2ccccc2N1`, the melting point fell in the range of 265 to 266 °C.
The same measure for `CCCc1c(OCc2ccccc2)ccc2c(=O)cc(C(=O)OCC)[nH]c12`: 121 to 122 °C.
In the case of `O=C(O)COc1ccc(S(=O)(=O)c2cccs2)c(Cl)c1Cl` it was 179 °C; in that of `CCCNC(=O)Nc1cc(-c2c(-c3ccc(F)cc3)nc3cccnn23)ccn1`, 219 to 220 °C.
Regarding `CCCC1=C(C#N)C(c2cccc(C(F)(F)F)c2Cl)c2c[nH]nc2N1` (configuration not stated), the melting point was over 250 °C.
In the case of `Cc1cc(N)ccc1-c1ccccc1CO` it was 108 to 112 °C; in that of `c1ccc(C2CN=C3Sc4ccccc4N32)cc1` (configuration not stated), 132 °C.
With `O=C(O)Cn1c2c([nH]c(=O)c1=O)CCC1=C2C=C(n2ccc(CN3CCN(c4ccc([N+](=O)[O-])cc4)CC3)c2)CC1`, the melting point was over 300 °C.
In the case of `CCn1ncc2c1ncc1c(NC)nc3cc(C)nn3c12` it was 254 to 255 °C; in that of `Cc1[nH]cnc1CSCCCN=C(NC#N)NCCc1c[nH]cn1`, 135 to 137 °C.
In the case of `O=C(c1ccc(C(F)(F)F)cc1)N1CCC(Cc2ccc(C3=NCCO3)cc2)CC1`, the melting point is 115 °C.
As to `CCOC(=O)c1cn(-c2ccncc2F)c2nc(Cl)c(F)cc2c1=O`, the melting point was found to be 226 °C.
For `COc1ccc(-c2c(CO)cc(OC)c(OC)c2OC)c(CO)c1OS(C)(=O)=O`, the melting point lay within 124 to 126 °C.
The same measure for `CCCCCCC1=CC(O)(C(Br)Br)N(Cc2ccccc2)C1=O` (configuration not stated): 105 to 108 °C; for `CCc1cc(C)cc(CC)c1C1C(=O)N2CCOCCN2C1=O`: 193 to 194 °C.
In the case of `CC1(O)CCC2(C)C(CCC3C2CCC2(C)C3CCC2[N+](=O)[O-])C1` (configuration not stated) it was 211 to 213 °C.
Consider `CCCCCCCCCCCC(=O)N[C@@H](C)C(=O)N[C@H](CCC(=O)O)C(N)=O`, for which the melting point is 163 °C.
The same measure for `CC(C)c1cccc(C(C)C)c1NC(=O)N(Cc1ccc(N(C)C)cc1)c1ccc(Cl)cc1`: 151 to 152 °C; for `CC(C)c1cc(-c2ccc3c(c2)OCO3)nc(Cl)c1C#N`: 171 to 173 °C.
The same measure for `O=C1CC(Cc2ccncc2)(Cc2ccncc2)C(=O)N1C12CC3CC(CC(C3)C1)C2`: 137 to 138 °C; for `C=C(C)C(=O)N=c1ccn(-c2ccccc2)nc1`: 136 °C.
In the case of `Cc1ccc(Nc2c(N)cc(C(=O)O)cc2S(N)(=O)=O)cc1` it was 249 to 252 °C; in that of `CCOC1CN(CC=CC(=O)Nc2cc3c(Nc4cccc(Br)c4)ncnc3cc2OC)CC(OCC)O1` (configuration not stated), 133 to 138 °C.
`O=C(O)COc1ccc(SSc2ccc(OCC(=O)O)c(Br)c2)cc1Br`: the melting point lay within 146 to 150 °C.
In the case of `O=C1Nc2ccc(Br)cc2C2(CCCCC2)O1` it was 208 to 210 °C.
In turn, `CC(C)NCC(O)COc1ccc(NC(=O)C(C)C)cc1C#N` (configuration not stated) gave a melting point of 126 to 127 °C.
In the case of `O=C(O)c1cnc2cc3c(cc2c1O)OCO3` it was over 290 °C; in that of `Nc1ccc(S(=O)(=O)C(F)(F)F)c2sc3ccccc3c12`, 108 °C.
For `O=C(N=c1sc2cc(C(F)(F)F)ccc2n1CCO)C(F)(F)F`, the melting point amounted to 198 °C.
The molecule `CC(C)(COC(=O)COc1ccc(C(=O)CN2Cc3cc(C(N)=S)ccc3C2=O)cc1)NS(=O)(=O)c1cccnc1` came in with a melting point of 197 to 198 °C.
In the case of `CS(=O)(=O)NCCC(c1cc(F)ccc1F)S(=O)(=O)c1ccc(Cl)cc1` (configuration not stated) it was 131 to 134 °C.
In the case of `COc1ccccc1-n1cnnc1C(F)(F)F` it was 62 °C.
The same measure for `Cn1ncc2c1-c1c(Oc3ccc4c(c3)OCO4)sc(C#N)c1CC2`: 132 to 134 °C; for `COc1ccc2cc(Nc3ccc(O)cc3)ccc2c1`: 153 to 154 °C.
For the molecule `CC(=O)OCc1c(S(C)(=O)=O)ccc(C(=O)O)c1Cl`, the melting point lay within 219 to 223 °C.
In the case of `CC(C)(C)OC(=O)N[C@H](Cc1ccc(Cl)c(Cl)c1)C(=O)N1CCC[C@H]1C(=O)NC1CCc2nc(N)sc2C1` (some centres not stated), the melting point lay in the range of 116 to 119 °C.
On to `CC1(C)[C@@H](CS(=O)(=O)c2ccc(S(C)(=O)=O)cc2)CC[C@@]1(C)NCC(=O)N1CCC[C@H]1C#N`, for which the melting point fell in the range of 162 to 166 °C.
Regarding `CS(=O)(=O)c1ccc(-c2cnn(CC(F)(F)F)c(=O)c2-c2ccc(Cl)cc2)cc1`, the melting point is 55 to 57 °C.
In the case of `COC(=O)c1ccc(Cc2cccc3ccc(C(=O)NCC(C)C)cc23)c(OC)c1` it was 174 to 175 °C; in that of `O=C(O)CN(CC(=O)O)c1cc(OCCCCCCCCCCCCOc2ccccc2)cc(OCCCCCCc2cccc(O)c2O)c1`, 129 to 131 °C.
In the case of `O=C(O)C(=O)c1ccc(CCCNC(=O)c2ccc3ccccc3c2)cc1` it was 126 to 128 °C; in that of `CCCc1c(O)c(C(C)=O)cc2c1CCCC2`, 52 to 53 °C; in that of `COc1ccc(C=CC(=O)NNC(=O)C=Cc2ccc(OC)cc2)cc1`, 288 °C.
In turn, `N#Cc1ccc(C#N)c(Sc2ccccc2)c1` gave a melting point of 106 °C.
The same measure for `CC(=O)Nc1c(N(C)C)cnn(-c2ccccc2)c1=O`: 186 to 187 °C.
In the case of `OC(CCN1CCN(c2ccccc2)CC1)COc1ccccc1Cl` (configuration not stated), the melting point is 100 to 102 °C.
The same measure for `CC(C)(C(=O)OCc1ccccc1)N1COC(CO)=C(c2ccccc2)C1=O`: 115 to 116 °C; for `Cn1cc2c3c(ccc2n1)CCC3=O`: 162 to 164 °C; for `Cc1ccc(C2(O)CCCCC2C(c2ccccc2)N(C)C)cc1` (configuration not stated): 168 to 169 °C.
The same measure for `CC(=O)NC[C@H]1CN(c2ccc(C3=CN(C(=O)CO)CCC3)c(F)c2)C(=O)O1`: 171 to 173 °C; for `CCCc1c(C(=O)C(C)C)c2ccc(C(=O)OC)cc2n1Cc1c(Cl)cccc1Cl`: 130 to 132 °C.
The same measure for `CCCc1nc2c(N)nc3cc(OCCOCCCl)ccc3c2s1`: 101 to 103 °C; for `CC(C)(C)C(=O)Nc1nn(-c2ccc(F)cc2F)c2c1C1CCC2C1` (configuration not stated): 136 to 138 °C; for `COc1ccc(C(NCCC(c2ccccc2)c2ccccc2)c2cccc(Nc3c(N)c(=O)c3=O)c2)cc1` (configuration not stated): 132 to 134 °C.
In the case of `CC(C)Oc1cc(COc2cc(CCC(=O)O)n(-c3ccccc3)n2)cc(COc2ncc(C(F)(F)F)cc2Cl)c1`, the melting point is 140 to 142 °C.
`N#Cc1nn(-c2c(Cl)cc(C(F)(F)F)cc2Cl)c(N)c1-c1cccc(Cl)c1` came in with a melting point of 161 to 162 °C.
`COc1ccc(C(=O)C(C(=O)Nc2ccccc2Cl)N2C(=O)c3ccccc3C2=O)cc1[N+](=O)[O-]` (configuration not stated) gave a melting point of 203 to 205 °C.
In the case of `CCn1cc(C(=O)O)c(=O)c2cc(F)c(N3CCNC(Cn4cccc4)C3)cc21` (configuration not stated) it was 185 to 188 °C; in that of `O=C(O)[C@@H](CCCN1C(=O)c2ccccc2C1=O)NS(=O)(=O)c1ccc(Oc2ccccc2)cc1`, 139 to 140 °C.

What is called melting point is the temperature, or range, at which the solid turns liquid.
